Like-named read-outs stand apart in the source and are kept apart here.
Experiments:
[1] = system: H1N1 serum subtype of swine influenza virus (SIV); type: in vivo, yellow chickens; conditions: 10 mg/day once per day for 11 days
[2] = system: H1N1 subtype serum swine influenza virus; type: in vivo, yellow chickens; conditions: 10 mg/day injected once per day for 7 days
[3] = system: swine influenza virus A/California/4/2009 and A/Hong Kong/xx/2008; type: cell-based, MDCK cells (Madin-Darby Canine Kidney Cells)

SMILES | Death Rate ([1]; 40 infected chickens) [%^] | Effective Rate ([1]; 40 infected chickens) [%] | Number of Death ([1]; of 40 infected chickens) | Death Rate ([2]; 30 infected chickens) [%^] | Effective Rate ([2]; 30 infected chickens) [%] | Number of Death ([2]; of 30 infected chickens) | Number of Detectable viruses/Total Number ([3]; Day 2, Tamiflu 10 μmol/ml) | Number of Detectable viruses/Total Number ([3]; Day 2, Tamiflu 100 μmol/ml) | Number of Detectable viruses/Total Number ([3]; Day 3, Tamiflu 10 μmol/ml) | Number of Detectable viruses/Total Number ([3]; Day 3, Tamiflu 100 μmol/ml)
CC(N)C12CC3CC(CC(C3)C1)C2 (stereo not shown) [Group C, rimantadine] | 62.5 | 37.5 | 25 | 63.3 | 36.6 | 19 | – | – | – | –
CCOC(=O)C1=C[C@@H](OC(CC)CC)[C@H](NC(C)=O)[C@@H](N)C1 [Tamiflu, Oseltamivir phosphate] | – | – | – | – | – | – | 1/2 | 0/2 | 2/2 | 2/2

Source: patent publication US20120093951A1 (priority 2009, published 2012)
